Source: patent publication US20260334439A1, “BCAT2 INHIBITORS” (Agios Pharmaceuticals, Inc., priority 2023, published 2026)

Target: T1, BCAT2 (Homo sapiens, UniProt O15382)
T1 sequence (O15382 28-392): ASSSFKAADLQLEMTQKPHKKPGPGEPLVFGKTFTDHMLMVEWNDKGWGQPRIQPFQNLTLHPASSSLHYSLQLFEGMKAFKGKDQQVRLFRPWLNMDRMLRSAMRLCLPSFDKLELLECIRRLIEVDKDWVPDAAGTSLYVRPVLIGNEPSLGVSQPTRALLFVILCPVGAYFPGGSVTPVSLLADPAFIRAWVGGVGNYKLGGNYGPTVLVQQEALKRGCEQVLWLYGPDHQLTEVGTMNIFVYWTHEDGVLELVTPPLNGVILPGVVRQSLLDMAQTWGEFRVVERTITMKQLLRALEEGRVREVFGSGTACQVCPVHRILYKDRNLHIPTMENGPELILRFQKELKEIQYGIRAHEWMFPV
Assay: BCAT2 in vitro enzyme inhibition assay (hBCAT2, glutamate dehydrogenase/diaphorase/resazurin coupled fluorescence read)
Format: biochemical
Conditions: hBCAT2, 1 h preincubation at 25° C., one hour reaction; average where tested multiple times
Experimental: • 2×Buffer: 200 mM Tris pH 8.0, 300 mM NaCl, 0.1% BSA • 1.67×hBCAT2 Enzyme Mix: 0.33 μg/mL hBCAT2, 1× Buffer • 2.5×Substrate Mix: 460 µM L-leucine, 420 µM α-KetoGlutarate, 10 U/mL glutamate dehydrogenase, 10 mM NAD, […] diaphorase, […] Resazurin
BCAT2 enzyme stock solution was diluted to prepare a 1.67×hBCAT2 Enzyme Mix. 1 μL of test compound was first added to the reaction wells followed by 30 μL of 1.67×hBCAT2 Enzyme Mix and incubated at room temperature (25° C.) for one hour. Meanwhile the Substrate Mix was prepared. The reaction was initiated by the addition of 20 μL of the 2.5×Substrate Mix, bringing the final reaction mix of all components to 1×. Reactions were quenched after one hour by the addition of 25 μL of 6% SDS and reaction progress was measured via fluorescence read (Ex 540/Em 590).
Test compounds were prepared at 50×final concentration in DMSO, 1 to 3 dilutions were made for 10 points. The compounds were added to the assay as a 1 to 50 dilution (1 μL in 50 μL) to yield a top assay final concentration of 100 μM, decreasing 3-fold for 10 points. Each compound dilution series test also included an assay max (1 μL DMSO Added in lieu of compound, Full Reaction Components Included) and Min (1 μL DMSO Added in lieu of compound, 30 μl of 1.67×hBCAT2 Enzyme Mix replated by 30 μL of 1×Buffer). All tests were performed in technical duplicate.
Where a compound was tested multiple times, the average value of the tests is reported.

IC50 | SMILES
> 1000 nM | CC(Oc1ccccc1-c1nc2cnc(-c3nc[nH]n3)cc2n1[C@@H]1CCC[C@H](NC(=O)c2cc(Cl)ccn2)C1)C(F)(F)F (stereo partly drawn) [Example 92, N-((1S,3R)-3-(6-(1H-1,2,4-triazol-3-yl)-2-(2-((1,1,1-trifluoropropan-2-yl)oxy)phenyl)-1H-imidazo[4,5-c]pyridin-1-yl)cyclohexyl)-4-chloropicolinamide]
< 100 nM | O=C(N[C@H]1CCC[C@@H](n2c(-c3ncccc3OC(F)F)nc3cnc(-c4nc[nH]n4)cc32)C1)c1cc(F)ccc1F [compound 61]
< 100 nM | CN1C[C@H](NC(=O)c2cc(Cl)ccn2)C[C@H](n2c(-c3ccccc3OCCO)nc3cnc(-c4ncco4)cc32)C1 [Example 161, 4-chloro-N-((3R,5S)-5-(2-(2-(2-hydroxyethoxy)phenyl)-6-(oxazol-2-yl)-1H-imidazo[4,5-c]pyridin-1-yl)-1-methylpiperidin-3-yl)picolinamide]
100 to 500 nM | CN1CC(NC(=O)c2cc(Cl)ccc2F)CC(n2c(-c3ncccc3F)nc3cnc(-c4nc[nH]n4)cc32)C1 (stereo not drawn) [Example 147, 5-chloro-2-fluoro-N-(5-(2-(3-fluoropyridin-2-yl)-6-(1H-1,2,4-triazol-3-yl)-1H-imidazo[4,5-c]pyridin-1-yl)-1-methylpiperidin-3-yl)benzamide]
< 100 nM | NC(=O)c1ccccc1-c1nc2cnc(-c3nc[nH]n3)cc2n1[C@@H]1CCC[C@H](N2COc3ccc(Cl)cc3C2=O)C1 [Example 207, 2-(1-((1R,3S)-3-(6-chloro-4-oxo-2H-benzo[e][1,3]oxazin-3(4H)-yl)cyclohexyl)-6-(1H-1,2,4-triazol-3-yl)-1H-imidazo[4,5-c]pyridin-2-yl)benzamide]
< 100 nM | CN1C[C@H](NC(=O)c2cc(F)ccc2F)C[C@H](n2c(-c3ccccc3OCCO)nc3cnc(-c4ncco4)cc32)C1 [Example 158, 2,5-difluoro-N-((3R,5S)-5-(2-(2-(2-hydroxyethoxy)phenyl)-6-(oxazol-2-yl)-1H-imidazo[4,5-c]pyridin-1-yl)-1-methylpiperidin-3-yl)benzamide]
> 1000 nM | CN1C[C@@H](NC(=O)c2cc(Cl)ccn2)C[C@@H](n2c(-c3ccccc3OCCO)nc3cnc(-n4nccn4)cc32)C1 [Example 156, 4-chloro-N-((3S,5R)-5-(2-(2-(2-hydroxyethoxy)phenyl)-6-(2H-1,2,3-triazol-2-yl)-1H-imidazo[4,5-c]pyridin-1-yl)-1-methylpiperidin-3-yl)picolinamide]
500 to 1000 nM | CC(C)(C#N)Cc1nc2cnc(-c3nc[nH]n3)cc2n1[C@@H]1CCC[C@H](NC(=O)c2cc(Cl)ccn2)C1 [Example 43, 4-chloro-N-((1S,3R)-3-(2-(2-cyano-2-methylpropyl)-6-(1H-1,2,4-triazol-3-yl)-1H-imidazo[4,5-c]pyridin-1-yl)cyclohexyl)picolinamide]
< 100 nM | O=C(N[C@H]1CCC[C@@H](n2c(-c3ccccc3OC(F)F)nc3cnc(-c4nc[nH]n4)cc32)C1)c1cc(Cl)ccn1 [compound 52]
> 1000 nM | COc1ccc(Cl)cc1C(=O)N[C@H]1C[C@@H](n2c(-c3ncccc3F)nc3cnc(-c4nc[nH]n4)cc32)CN(C)C1 [Example 138, 5-chloro-N-((3S,5R)-5-(2-(3-fluoropyridin-2-yl)-6-(1H-1,2,4-triazol-3-yl)-1H-imidazo[4,5-c]pyridin-1-yl)-1-methylpiperidin-3-yl)-2-methoxybenzamide]
< 100 nM | CO[C@H]1C[C@H](NC(=O)c2cc(Cl)ccc2F)C[C@H](n2c(-c3ccccc3OCCO)nc3cnc(-c4ncco4)cc32)C1 [Example 124, 5-chloro-2-fluoro-N-((1R,3S,5S)-3-(2-(2-(2-hydroxyethoxy)phenyl)-6-(oxazol-2-yl)-1H-imidazo[4,5-c]pyridin-1-yl)-5-methoxycyclohexyl)benzamide]
> 1000 nM | O=C(N[C@H]1CCC[C@@H](n2c(CCC3CCOC3)nc3cnc(-c4nc[nH]n4)cc32)C1)c1cc(Cl)ccn1 (stereo partly drawn) [Example 94, 4-chloro-N-((1S,3R)-3-(2-(2-(tetrahydrofuran-3-yl)ethyl)-6-(1H-1,2,4-triazol-3-yl)-1H-imidazo[4,5-c]pyridin-1-yl)cyclohexyl)picolinamide]
< 100 nM | CO[C@H]1C[C@H](NC(=O)c2cc(F)ccn2)C[C@H](n2c(-c3ccccc3OCCO)nc3ccc(-c4ncccn4)cc32)C1 [Example 224, 4-fluoro-N-((1R,3S,5S)-3-(2-(2-(2-hydroxyethoxy)phenyl)-6-(pyrimidin-2-yl)-1H-benzo[d]imidazol-1-yl)-5-methoxycyclo-hexyl)picolinamide]
500 to 1000 nM | CCN1C[C@@H](NC(=O)c2cc(F)ccn2)C[C@@H](n2c(-c3ccccc3F)nc3cnc(-c4nc[nH]n4)cc32)C1 [Example 149, N-((3S,5R)-1-ethyl-5-(2-(2-fluorophenyl)-6-(1H-1,2,4-triazol-3-yl)-1H-imidazo[4,5-c]pyridin-1-yl)piperidin-3-yl)-4-fluoropicolinamide]
> 1000 nM | COc1ccc(Cl)cc1C(=O)N[C@@H]1C[C@@H](O)C[C@H](n2c(CC(C)C)nc3cnc(-c4ncccn4)cc32)C1 [Example 112, 5-chloro-N-((1S,3R,5R)-3-hydroxy-5-(2-isobutyl-6-(pyrimidin-2-yl)-1H-imidazo[4,5-c]pyridin-1-yl)cyclohexyl)-2-methoxybenzamide]
< 100 nM | CCN1C[C@H](NC(=O)c2cc(F)ccn2)C[C@H](n2c(-c3ccccc3F)nc3cnc(-c4nc[nH]n4)cc32)C1 [Example 148, N-((3R,5S)-1-ethyl-5-(2-(2-fluorophenyl)-6-(1H-1,2,4-triazol-3-yl)-1H-imidazo[4,5-c]pyridin-1-yl)piperidin-3-yl)-4-fluoropicolinamide]
100 to 500 nM | CO[C@H]1C[C@H](NC(=O)c2cc(F)ccn2)C[C@H](n2c(-c3ccccc3OCCO)nc3ccc(-c4ncco4)cc32)C1 [Example 223, 4-fluoro-N-((1R,3S,5S)-3-(2-(2-(2-hydroxyethoxy)phenyl)-6-(oxazol-2-yl)-1H-benzo[d]imid-azol-1-yl)-5-methoxycyclohex-yl)picolinamide]
< 100 nM | O=C(N[C@H]1CCC[C@@H](n2c(-c3ncccc3OC(F)F)nc3cnc(-c4nc[nH]n4)cc32)C1)c1cc(Cl)ccn1 [compound 62]
< 100 nM | O=C(N[C@H]1CCC[C@@H](n2c(-c3ccccc3F)nc3cnc(-c4nc[nH]n4)cc32)C1)c1cc(Cl)cc[n+]1[O-] [Example 67, 4-chloro-2-(((1S,3R)-3-(2-(2-fluorophenyl)-6-(1H-1,2,4-triazol-3-yl)-1H-imidazo[4,5-c]pyridin-1-yl)cyclohexyl)carbamoyl)pyridine 1-oxide]
< 100 nM | O=C(N[C@H]1CCC[C@@H](n2c(-c3ccccc3F)nc3cnc(-c4nc[nH]n4)cc32)C1)c1ccc(F)cc1F [Example 75, 2,4-difluoro-N-((1S,3R)-3-(2-(2-fluorophenyl)-6-(1H-1,2,4-triazol-3-yl)-1H-imidazo[4,5-c]pyridin-1-yl)cyclohexyl)benzamide]
< 100 nM | Cc1coc(-c2cc3c(cn2)nc(-c2ccccc2F)n3[C@@H]2CCC[C@H](NC(=O)c3cc(F)ccc3F)[C@H]2O)n1 [Example 125, 2,5-difluoro-N-((1S,2R,3R)-3-(2-(2-fluorophenyl)-6-(4-methyloxazol-2-yl)-1H-imidazo[4,5-c]pyridin-1-yl)-2-hydroxycyclohexyl)benzamide]
100 to 500 nM | CO[C@H]1C[C@@H](NC(=O)c2cc(F)ccn2)C[C@@H](n2c(-c3ccccc3F)nc3cnc(-c4nc[nH]n4)cc32)C1 [Example 115, 4-fluoro-N-((1S,3R,5S)-3-(2-(2-fluorophenyl)-6-(1H-1,2,4-triazol-3-yl)-1H-imidazo[4,5-c]pyridin-1-yl)-5-methoxycyclohexyl)picolinamide]
< 100 nM | O=C(N[C@H]1CCC[C@@H](n2c(-c3ccccc3F)nc3ccc(-c4nc[nH]n4)cc32)[C@@H]1O)c1cc(F)ccc1F [Example 225, 2,5-difluoro-N-((1S,2R,3R)-3-(2-(2-fluorophenyl)-6-(1H-1,2,4-triazol-3-yl)-1H-benzo[d]imid-azol-1-yl)-2-hydroxycyclohex-yl)benzamide]
< 100 nM | O=C(N[C@H]1CCC[C@@H](n2c(-c3ccccc3OCCO)nc3ccc(-c4nc[nH]n4)cc32)C1)c1cc(F)ccc1F [Example 228, 2,5-difluoro-N-((1S,3R)-3-(2-(2-(2-hydroxyethoxy)phenyl)-6-(1H-1,2,4-triazol-3-yl)-1H-benzo[d]imidazol-1-yl)cyclo-hexyl)benzamide]
